Experimental findings from US20240216321A1, “FERMENTATIVELY-PRODUCED RETINOID CONTAINING COMPOSITIONS, AND THE METHDOS OF MAKING AND USING THE SAME” (DSM IP Assets B.V., priority 2022, published 2024) are described below.

One series concerns Malassezia furfur. As to the kind of experiment: Antimicrobial efficacy test in analogy to challenge test NF EN ISO11930. The series is classed as cell-based. Particulars: concentration 0.25%, initial inoculum count 100,000, 22° C. The procedure:
(§1) The antimicrobial efficacy of retinol and retinyl acetate having different cis/trans ratio has been assessed in analogy to the regulatory challenge test method (NF EN ISO11930). Thus, solutions of the respective retinol and retinyl acetate mixtures (reference samples and inventive mixtures with a purity of about 98%) were prepared in physiological serum with 0.85 wt.-% NaCl under sterile conditions. The presence of cis and trans-isomers in the retinoid component were calculated by reversed phase C4 HPLC analysis, with the total cis-isomer content in the retinoid component, relative to the total weight of trans-isomers in the retinoid component detected, is reported in Table 4 below along the row labelled “cis/trans ratio”. Also reported for each sample was the specific retinoid used as the retinoid component (either retinyl acetate or retinol for all samples). The solutions of the active(s) were then deposed in 96-deep well plates (1.6 ml/well) at a concentration as specified by wt. % in Table 4 below. The wells were contaminated with Cutibacterium acnes, Corynebacterium xerosis, and Malassezia furfur, respectively, to obtain the initial contamination. The initial contamination count, which is listed as “initial inoculum count” for each test as indicated in Tale 4 below, was determined to be 100,000. After contamination, each well was thoroughly mixed to ensure a homogeneous distribution of the microbes. Then each plate was incubated at 22° C. for 24 h. The counting of the (remaining) population was carried out 24 hours after contamination, as indicated below in Table 4 by the rows labelled “24 hr”. The change in count from the initial inoculum count to the 24-hour count (in terms of percentage) is reflected in the Table below by the rows labelled “A R”.

A further series relates to Cutibacterium acnes. The series is described as above. Format: cell-based. The following applies: for 24 hr count (remaining population) / Δ R (change from initial inoculum count to 24-hour count): initial inoculum count 100,000, 22° C.; for reduction of Cutibacterium acnes: stated as reduction. The method, then: as §1
The next series concerns Corynebacterium xerosis. Described as above. The following applies: initial inoculum count 100,000, 22° C. The series is classed as cell-based. The method, then:
as §1

The format of series [1] is physicochemical. The procedure:
Retinoid quantification: Analysis of retinoids were carried out with a C4 reverse phase retinoid method (see below). The addition of all added intermediates gives the total amount of retinoids.
C4 reverse phase chromatography. For exact determination of discrete retinoids, the long run reverse phase system was used. Analytes were separated using the Agilent 1290 instrument with YMC Pro C4, 150×3.0 mm, 3 um column (YMC America, Allentown PA) stationary phase, and a 5 μl injection loop volume and column and sample tray controlled at 23° C. with gradients described in Table B. Analytes were detected at 210, 230 nm and 325 nm and the peak's identity was verified with LCMS. The analytes were separated as discrete peaks that were assigned according to the table below. […]
To determine oxidative stability of examples 1-5, each sample, the preparation of which is described above, was placed under ambient conditions (20° C. and 50% relative humidity preferred) in its own small brown glass vial, blanketed with argon, and put into an oven preheated to 105° C. Thereafter, the samples remained in the oven for 3 hours. After three hours the samples were taken out of the oven and analyzed via the same method(s) utilized to determine “initial” values as reported in Table 1 above. The values for each component were measured after the thermal stress test and compared to the values determined prior to the test. For clarity, example 1 indicated a total retinoid component (see row in Table 1 above labelled “all retinyl acetate (all species)”) prior to the thermal stress test of 90.53%; the change indicated in Table 2 of −1.31% below signifies that the total retinoid component determined after the thermal stress test was 89.22% (by weight relative to the entire sample weight).

The mark [2] stands for this setting: 105° C. for 3 hours, blanketed with argon, change vs value before test.

Consider `CC1=C(/C=C/C(C)=C/C=C/C(C)=C/CO)C(C)(C)CCC1` [Ex. 11, Retinol], for which, in the series on Malassezia furfur, the “24 hr count (remaining population)” value is given as 40,000 and the “Δ R (change from initial inoculum count to 24-hour count)” value is recorded as −60%. In addition, in the series on Cutibacterium acnes (concentration 0.25%), the “24 hr count (remaining population)” value came to 700 and the “Δ R (change from initial inoculum count to 24-hour count)” value was −99.3%. Further, the “reduction of Cutibacterium acnes” value in the series on Cutibacterium acnes (retinol compositions) came to 99.3%.
In the case of `CC(=O)OC/C=C(C)/C=C/C=C(C)/C=C/C1=C(C)CCCC1(C)C` [Ex. 9, Retinyl acetate], the “24 hr count (remaining population)” value in the series on Corynebacterium xerosis (concentration 0.1%) was 70,000; in the series on Corynebacterium xerosis (concentration 0.25%), 10,000; with Cutibacterium acnes (concentration 0.1%), 70,000. Moreover, the “Δ R (change from initial inoculum count to 24-hour count)” value in the series on Corynebacterium xerosis (concentration 0.1%) is on record as −30%; in the series on Corynebacterium xerosis (concentration 0.25%), −90%; in the series on Cutibacterium acnes (concentration 0.1%), −30%. Besides, in the series with Cutibacterium acnes (retinyl acetate mixtures), the “reduction of Cutibacterium acnes” value was “about 30%”.
As to `CC(=O)OC/C=C(C)/C=C/C=C(C)/C=C/C1=C(C)CCCC1(C)C` [Example 5, retinyl acetate], in series [1] (setting [2]), the “9Z-retinal, % change” value was determined as 0.00%; the “Dihydro-actinidiole, % change” value was −0.01%; the “Dihydro-retinol, % change” value is 0.00%; the “E-Retinal, % change” value was −0.01%. In series [1] (setting [2]), the “E-retinol, % change” value is −0.01%; the “Retinyl acetate (all species), % change” value is reported as −5.50%; the “Z-retinol, % change” value is given as −0.04%; the “cis-retinyl acetate, % change” value is on record as −0.22%. Besides, in series [1] (105° C. for 3 hours, blanketed with argon, change vs value before test (wt. % of entire composition)), the “Ethanol, % change” value was determined as 0.00%. The “reduction in retinyl acetate (loss of retinyl acetate content) after heat stability test” value in series [1] (3 h) was 5.50%.
For the compound `CC(=O)OC/C=C(C)/C=C/C=C(C)/C=C/C1=C(C)CCCC1(C)C` [Ex. 7, Retinyl acetate], the “24 hr count (remaining population)” value was 370,000 with Corynebacterium xerosis (concentration 0.1%), 40,000 in the series with Corynebacterium xerosis (concentration 0.25%) and 370,000 in the series on Cutibacterium acnes (concentration 0.1%). The “Δ R (change from initial inoculum count to 24-hour count)” value is listed as 270% with Corynebacterium xerosis (concentration 0.1%), −60% with Corynebacterium xerosis (concentration 0.25%) and 270% in the series on Cutibacterium acnes (concentration 0.1%).
As for `CC(=O)OC/C=C(C)/C=C/C=C(C)/C=C/C1=C(C)CCCC1(C)C` [Ex. 8, Retinyl acetate], the results for the “24 hr count (remaining population)” value in the series on Corynebacterium xerosis (concentration 0.1%), with Corynebacterium xerosis (concentration 0.25%) and in the series on Cutibacterium acnes (concentration 0.1%) were 70,000, 37,000 and 70,000, respectively. Moreover, the “Δ R (change from initial inoculum count to 24-hour count)” value in the series on Corynebacterium xerosis (concentration 0.1%) is recorded as −30%; in the series on Corynebacterium xerosis (concentration 0.25%) it was −63%; with Cutibacterium acnes (concentration 0.1%), −30%. Besides, the “reduction of Cutibacterium acnes” value in the series with Cutibacterium acnes (retinyl acetate mixtures) is recorded as “about 30%”.
Regarding `CC1=C(/C=C/C(C)=C/C=C/C(C)=C/CO)C(C)(C)CCC1` [Ex. 10, Retinol], in the series on Malassezia furfur, the “24 hr count (remaining population)” value is on record as 100,000 and the “Δ R (change from initial inoculum count to 24-hour count)” value stood at 0%. In the series on Cutibacterium acnes (concentration 0.25%), the “24 hr count (remaining population)” value was 1,000 and the “Δ R (change from initial inoculum count to 24-hour count)” value is −99%.
